Assay results published in patent US20090136461A1, “Neuronal differentiation method of adult stem cells using small molecules” (priority 2007, published 2009).

What was measured:
Test in all cases: Neuronal differentiation, inverted microscope morphology
Format in all cases: cell-based, Fischer rats
[1] = tested on: adipose-derived stem cells; settings: 10 μM small molecules; FIG. 3C, FIG. 4
Protocol: (§1) Bone marrow-derived mesenchymal stem cells subcultured for 5 generations were distributed on a well plate. One day later, the cells were treated with DMEM containing 20% FBS and 10 ng/mL b-FGF for a day, so that the cells could proliferate sufficiently. In order to induce differentiation into nerve cells, the cells were treated with differentiation medium containing the small molecules listed in Table 1. The small molecules were used after being dissolved in DMSO (Sigma, USA). The concentration of DMSO was less than 2% of the entire culture medium, and was diluted so that the small molecules were included with a concentration in the range from 1 μM to 100 μM. As negative control, DMEM containing 10% FBS and 1% penicillin-streptomycin was used. And, retinoic acid as positive control, which is a well-known inducer of differentiation into nerve cells, was used after being diluted to 2 μM in DMEM. Differentiation of muscle-derived stem cells and adipose-derived stem cells into nerve cells was induced similarly as in the bone marrow-derived stem cells.

[2] = tested on: bone marrow-derived mesenchymal stem cells; settings: 10 μM small molecules; FIG. 3A
Protocol: as §1

[3] = tested on: muscle-derived stem cells; settings: 10 μM small molecules; FIG. 3B
Protocol: as §1

| SMILES | differentiation (microscopic images) [1] | differentiation (inverted microscopic images) [2] | differentiation (inverted microscopic images) [3] |
| --- | --- | --- | --- |
| O=C(Nc1ccccc1)/C(=C/c1ccc(C(=O)NO)cc1)COc1ccc2oc3ccccc3c2c1 [BHA-2] | differentiated |  |  |
| C/C(=C/CCCCC(=O)NO)C(=O)NC1Cc2ccccc2C1 [AAHA-1] | differentiated |  |  |
| COc1ccc(NC(=O)/C(=C/c2ccc(C(=O)NO)cc2)COc2cccc3ccccc23)cn1 [BHA-4] | differentiated |  |  |
| CC(CCCCC(C)(C)C(=O)NO)C(=O)Nc1ccccc1 (centres unmarked) [AAHA-2] | differentiated |  |  |
| O=C(CCc1ccc(C(=O)NO)cc1)Nc1cccc(OCc2ccccc2)c1 [BHA-1] | differentiated | differentiated | differentiated |
| O=C(NO)c1ccc2c(c1)NC(CCCc1ccccc1)C(=O)N2 (centres unmarked) [QHA-2] | differentiated | differentiated | differentiated |
| O=C(NO)c1ccc(/C=C(/CNc2ccc(-c3ccccc3)cc2)COc2cccc3ccccc23)cc1 [BHA-3] | differentiated |  |  |
